Measured values published in the supplement of paper PMC10307832.

What was measured:
Test in all cases: relative viability (nuclei count vs DMSO), 5 days (fraction); higher = more cells survive
Gemcitabine = compound: Nc1ccn([C@@H]2O[C@H](CO)[C@@H](O)C2(F)F)c(=O)n1 [Gemcitabine]
Summary of the method: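 In 1536-well plates, lung cancer cell lines rested overnight at 37 °C before five library-drug doses (not always all listed), √10 apart, were pinned onto vehicle-anchored plates. Nuclei were counted with MetaXpress from 4× Hoechst images taken after 5 days without medium change. Viability compares treated-well with vehicle-well nuclei as a median over plates, and plates needed control CV below 25% plus at least one doubling to pass.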

Gemcitabine + Foretinib = compound: Nc1ccn([C@@H]2O[C@H](CO)[C@@H](O)C2(F)F)c(=O)n1 [Gemcitabine] + COc1cc2c(Oc3ccc(NC(=O)C4(C(=O)Nc5ccc(F)cc5)CC4)cc3F)ccnc2cc1OCCCN1CCOCC1 [Foretinib] (partner 0.25 µM)
Summary of the method: (§1)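 After 5 days of treatment, lung cancer cells in 1536-well plates were fixed and stained in a single step (final 0.05% Triton X-100, 1% formaldehyde, 1 ug/ml Hoechst) and their nuclei counted on 4× images. Treatment had been applied by pin tool the day after seeding as one drug alone or as a fixed anchor-drug dose with five library-drug doses (not always all listed) in √10 steps. Relative viability is the nuclei count of treated wells divided by that of vehicle wells, and values are medians of duplicate plates.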

[1] = compound: Nc1ccn([C@@H]2O[C@H](CO)[C@@H](O)C2(F)F)c(=O)n1 [Gemcitabine] + CC(=O)c1c(C)c2cnc(Nc3ccc(N4CCNCC4)cn3)nc2n(C2CCCC2)c1=O [Palbociclib] (partner 0.5 µM)
Summary of the method: as §1

Gemcitabine + OSI-027 = compound: Nc1ccn([C@@H]2O[C@H](CO)[C@@H](O)C2(F)F)c(=O)n1 [Gemcitabine] + COc1cccc2cc(-c3nc([C@H]4CC[C@H](C(=O)O)CC4)n4ncnc(N)c34)[nH]c12 [OSI-027] (partner 0.5 µM)
Summary of the method: as §1

Cell Line | relative viability (Gemcitabine; 0.001 µM) | relative viability (Gemcitabine; 0.003162 µM) | relative viability (Gemcitabine; 0.01 µM) | relative viability (Gemcitabine; 0.03162 µM) | relative viability (Gemcitabine; 0.1 µM) | relative viability (Gemcitabine + Foretinib; first compound 0.001 µM) | relative viability (Gemcitabine + Foretinib; first compound 0.003162 µM) | relative viability (Gemcitabine + Foretinib; first compound 0.01 µM) | relative viability (Gemcitabine + Foretinib; first compound 0.03162 µM) | relative viability (Gemcitabine + Foretinib; first compound 0.1 µM) | relative viability ([1]; first compound 0.001 µM) | relative viability ([1]; first compound 0.003162 µM) | relative viability ([1]; first compound 0.01 µM) | relative viability ([1]; first compound 0.03162 µM) | relative viability ([1]; first compound 0.1 µM) | relative viability (Gemcitabine + OSI-027; first compound 0.001 µM) | relative viability (Gemcitabine + OSI-027; first compound 0.003162 µM) | relative viability (Gemcitabine + OSI-027; first compound 0.01 µM) | relative viability (Gemcitabine + OSI-027; first compound 0.03162 µM) | relative viability (Gemcitabine + OSI-027; first compound 0.1 µM)
RERF-LC-KJ | 1.01 | 1 | 0.973 | 0.496 | 0.247 | 0.942 | 0.89 | 0.958 | 0.799 | 0.326 | 1.06 | 1.02 | 0.991 | 0.356 | 0.255 | 0.62 | 0.508 | 0.418 | 0.261 | 0.225
SK-LU-1 | 1.01 | 0.479 | 0.243 | 0.191 | 0.228 | 0.728 | 0.441 | 0.217 | 0.168 | 0.164 | 0.386 | 0.312 | 0.283 | 0.184 | 0.221 | 0.352 | 0.208 | 0.146 | 0.165 | 0.143
SK-MES-1 | 0.945 | 0.473 | 0.216 | 0.203 | 0.17 | 0.987 | 0.646 | 0.319 | 0.191 | 0.201 | 0.257 | 0.274 | 0.229 | 0.223 | 0.225 | 0.367 | 0.195 | 0.142 | 0.122 | 0.127
SW 900 | 0.802 | 0.424 | 0.153 | 0.134 | 0.141 | 0.697 | 0.511 | 0.117 | 0.0938 | 0.0882 | 0.551 | 0.562 | 0.286 | 0.176 | 0.186 | 0.526 | 0.241 | 0.13 | 0.0871 | 0.0793
SW 1573 | 0.911 | 0.736 | 0.239 | 0.101 | 0.0671 | 1.03 | 0.776 | 0.32 | 0.131 | 0.0835 | 0.432 | 0.308 | 0.131 | 0.0954 | 0.0788 | 0.512 | 0.381 | 0.0711 | 0.0797 | 0.0431
UMC-11 | 1.04 | 0.992 | 0.974 | 0.869 | 0.375 | 1.17 | 1.1 | 0.948 | 0.764 | 0.391 | 0.295 | 0.36 | 0.287 | 0.284 | 0.233 | 0.474 | 0.474 | 0.478 | 0.352 | 0.197
